Drawing on the RepoRT retention time repository (doi:10.1016/j.foodchem.2021.129757), this text covers LC retention time for 23 compounds.

Settings in all cases: stereoisomer not certain
Data set [1] is described as follows: RP, 150 × 2.1 mm, 2.6 µm, 40 °C, 0.35 mL/min, estimated dead time 0.94 min; A: water + 0.1% formic acid, pH 3; B: acetonitrile + 0.1% formic acid, pH 3; gradient (min/%B) 0/0 1/0 12.5/100 14/100 14.2/0 15/0.
Data set [2] is described as follows: RP, Waters Atlantis T3, 100 × 2.1 mm, 3 µm, 40 °C, 0.3 mL/min, estimated dead time 0.73 min; A: water + 0.1% trifluoroacetic acid, pH 2; B: acetonitrile + 0.1% trifluoroacetic acid, pH 2; gradient (min/%B) 0/10 1/10 6/40 7/50 8/50 14/70 16/80 20/10 25/10.
Data set [3] in a line: RP, Phenomenex Kinetex EVO C18, 100 × 2.1 mm, 2.6 µm, 40 °C, 0.4 mL/min, estimated dead time 0.55 min; A: water + 0.2% formic acid; B: acetonitrile + 0.2% formic acid; gradient (min/%B) 0/5 0.5/5 7/95 8/95 8.5/5 12/5.
Data set [4] can be described thus: RP, 150 × 2.1 mm, 2.6 µm, 40 °C, 0.35 mL/min, estimated dead time 0.94 min; A: water + 0.1% formic acid, pH 3; B: acetonitrile + 0.1% formic acid, pH 3; gradient (min/%B) 0/0 1/5 7/45 8.5/80 10.5/80 11/5 12/5.
A short description of data set [5]: RP, Merck Supelco SUPELCOSIL LC-C18, 250 × 4.6 mm, 5 µm, 40 °C, 1 mL/min, estimated dead time 2.6 min; A: water + 0.1% trifluoroacetic acid, pH 2; B: acetonitrile + 0.1% trifluoroacetic acid, pH 2; gradient (min/%B) 0/5 45/35 47/75 49/35 50/5.
Data set [6] can be described thus: RP, Waters ACQUITY UPLC HSS T3, 100 × 2.1 mm, 50 °C; A: water + 0.1% formic acid, pH 3; B: 30% methanol + 70% acetonitrile + 0.1% formic acid, pH 3; gradient (min/%B) 0/5 1/8 2/15 3/40 4/70 4.5/100 5/100 6.4/100 6.6/5 6.8/5 7/5.
The nature of data set [7]: Other, Phenomenex Kinetex PFP, 100 × 4.6 mm, 5 µm, 45 °C, 0.6 mL/min, estimated dead time 1.8 min; A: water + 0.1% trifluoroacetic acid, pH 2; B: methanol; gradient (min/%B) 0/40 20/72 21/40.
Data set [8] in a line: RP, Phenomenex Synergi Hydro-RP, 250 × 2 mm, 4 µm, 25 °C, 0.2 mL/min, estimated dead time 2.5 min; A: water + 0.1% formic acid, pH 3; B: acetonitrile + 0.1% formic acid, pH 3; gradient (min/%B) 0/0.5 7/0.5 12/12.5 25/16.3 47/35 48/65 50/65 50.1/0.5.
A short description of data set [9]: RP, Agilent ZORBAX RRHD Eclipse Plus C18, 50 × 2.1 mm, 1.8 µm, 30 °C, 0.4 mL/min, estimated dead time 0.28 min; A: water + 0.1% formic acid, pH 3; B: acetonitrile + 0.1% formic acid, pH 3; gradient (min/%B) 0/1 5/10 8/25 9.1/99 10/99 12/99.
Data set [10] in a line: RP, Agilent ZORBAX RRHD Eclipse Plus C18, 50 × 2.1 mm, 1.8 µm, 30 °C, 0.4 mL/min, estimated dead time 0.28 min; A: water + 0.1% formic acid, pH 3; B: acetonitrile + 0.1% formic acid, pH 3; gradient (min/%B) 0/1 5/10 8/25 9.1/99 10/99 12/1.
Data set [11] can be described thus: RP, Agilent InfinityLab Poroshell 120 EC-C18, 100 × 3 mm, 2.7 µm, 25 °C, 0.4 mL/min, estimated dead time 1.1 min; A: water + 0.1% formic acid, pH 3; B: acetonitrile + 0.1% formic acid, pH 3; gradient (min/%B) 0/5 10/25 20/40 24/90 25/90 26/5 30/5.
The nature of data set [12]: RP, Agilent ZORBAX Eclipse XDB-C18, 100 × 2.1 mm, 1.8 µm, 50 °C, 0.4 mL/min, estimated dead time 0.55 min; A: water + 0.1% formic acid, pH 3; B: methanol + 0.1% formic acid, pH 3; gradient (min/%B) 0/2 10/100 14.5/100 14.51/2 16.5/2.
The nature of data set [13]: RP, Merck LiChrospher RP-18, 250 × 4 mm, 5 µm, 35 °C, 0.3 mL/min, estimated dead time 6.7 min; A: water + 0.5% formic acid; B: acetonitrile + 0.5% formic acid; gradient (min/%B) 0/5 10/5 30/15 45/20 65/20 95/54 110/63 115/5 135/5.
Data set [14] can be described thus: RP, Waters ACQUITY UPLC BEH C18, 100 × 2.1 mm, 1.7 µm, 65 °C, 0.4 mL/min, estimated dead time 0.55 min; A: water + 0.1% formic acid, pH 3; B: 80% acetonitrile + 20% acetone + 0.1% formic acid, pH 3; gradient (min/%B) 0/0 5/100 5.5/0 6/0.
Data set [15] can be described thus: RP, Waters ACQUITY UPLC BEH Shield RP18, 150 × 2.1 mm, 1.7 µm, 40 °C, 0.4 mL/min, estimated dead time 0.83 min; A: water + 0.1% formic acid, pH 3; B: acetonitrile + 0.1% formic acid, pH 3; gradient (min/%B) 0/0 30/50 31/100 37/100 37.1/0.
Data set [16] in a line: RP, Waters ACQUITY UPLC HSS T3, 100 × 2.1 mm, 1.8 µm, 30 °C, 0.4 mL/min, estimated dead time 0.55 min; A: water + 0.1% formic acid, pH 3; B: acetonitrile + 0.1% formic acid, pH 3; gradient (min/%B) 0/0 2/0 15/100 22/100 22.1/0 26/0.

In the case of `O=C(OC1Cc2c(O)cc(O)cc2OC1c1cc(O)c(O)c(O)c1)c1cc(O)c(O)c(O)c1` (single isomer, unassigned; (-)) [(-)-Epigallocatechin gallate], the LC retention time in data set [1] was 5.08 min; in data set [2] it was 6.14 min; in data set [3], 4.38 min; in [4] it was 5.02 min; in data set [5], 16.9 min.
Regarding `O=C(C=Cc1ccc(O)c(O)c1)OC1CC(OC(=O)C=Cc2ccc(O)c(O)c2)(C(=O)O)CC(O)C1O` (stereo not given) [1,3-dicaffeoylquinic acid], the LC retention time in data set [5] was 19.1 min.
Regarding `O=C(O)C=Cc1ccc(O)cc1O` [2,4-Dihydroxycinnamic acid], the LC retention time in data set [6] is 3.08 min; in [7], 5.73 min.
For the compound `O=C(O)c1cccc(O)c1` [3-Hydroxybenzoic acid], the LC retention time was 22.7 min in [8]; 4.26 min in data set [9]; 5.36 min in [10]; 5.01 min in data set [2]; 5.57 min in [7].
As for `O=c1cc(-c2ccccc2)oc2cc(O)cc(O)c12` [Chrysin], the LC retention time is 39.4 min in [5] and 22.2 min in data set [11].
Regarding `O=C(O)C=Cc1ccccc1` [Cinnamic acid-trans], the LC retention time is 2.74 min in [6]; 6.27 min in data set [12]; 46.7 min in [8]; 92.9 min in data set [13]; 9.09 min in data set [10]; 35.6 min in data set [5]. In addition, the LC retention time in data set [14] is 2.79 min; in data set [15] it was 16.2 min.
As for `O=C(C=Cc1ccc(O)c(O)c1)OC1C(O)CC(O)(C(=O)O)CC1O` (stereo not given) [Cryptochlorogenic acid], the LC retention time in [1] was 4.63 min; in [4], 4.45 min; in data set [5], 14.1 min.
For the compound `OCC1OC(Oc2cc3c(OC4OC(CO)C(O)C(O)C4O)cc(O)cc3[o+]c2-c2ccc(O)c(O)c2)C(O)C(O)C1O` (stereo not given) [Cyanidin-3,5-O-diglucoside], the LC retention time in data set [5] was 16.4 min.
Consider `O=c1c(-c2ccc(O)cc2)coc2cc(O)ccc12` [Daidzein], for which the LC retention time in data set [16] was 10.7 min; in data set [5], 34.6 min; in [14], 2.53 min; in data set [15], 17.9 min; in [11] it was 12.9 min.
With `O=C(OC1Cc2c(O)cc(O)cc2OC1c1ccc(O)c(O)c1)c1cc(O)c(O)c(O)c1` (stereo not given) [Epicatechin gallate], the LC retention time in [13] is 58.6 min; in [1] it was 5.67 min; in data set [16] it was 9.36 min; in data set [7], 5.76 min; in [4], 5.72 min.
`O=C1CC(c2ccc(O)c(O)c2)Oc2cc(O)cc(O)c21` (stereo not given) [Eriodictyol]: the LC retention time in [13] was 88.7 min; in [1], 6.95 min; in data set [16] it was 10.9 min; in data set [7], 15.4 min; in [4], 7.21 min; in [14], 2.59 min. The LC retention time in data set [11] is 13.7 min.
As for `O=c1c(O)c(-c2ccc(O)c(O)c2)oc2cc(O)ccc12` [Fisetin], the LC retention time in data set [16] was 10.2 min; in data set [5], 30.9 min.
With `O=C(O)c1cc(O)ccc1O` [Gentisic acid], the LC retention time in [12] is 2.85 min; in data set [8], 19.9 min; in [9], 2.82 min; in data set [1], 4.7 min; in data set [10] it was 4.25 min; in data set [16], 8.3 min. The LC retention time in data set [4] was 4.37 min; in data set [5] it was 12.5 min; in [15], 6.28 min; in [11], 5.44 min.
Take `OCC1OC(Oc2cc3c(O)cc(O)cc3[o+]c2-c2ccc(O)cc2)C(O)C(O)C1O` (stereo not given) [Pelargonidin-3-O-glucoside]: the LC retention time in [5] is 23.4 min.
Same read-out and setting: the same measure for `CC1OC(OCC2OC(Oc3cc4c(O)cc(=O)cc-4oc3-c3ccc(O)cc3)C(O)C(O)C2O)C(O)C(O)C1O` (stereo not given) [Pelargonidin-3-O-rutinoside]: 24.3 min.
In the case of `COc1cc(-c2[o+]c3cc(O)cc(O)c3cc2OC2OC(CO)C(O)C(O)C2O)ccc1O` (stereo not given) [Peonidin-3-O-glucoside], the LC retention time in [5] was 24.8 min.
In the case of `COc1cc(-c2[o+]c3cc(O)cc(O)c3cc2OC2OC(CO)C(O)C(O)C2O)cc(O)c1O` (stereo not given) [Petunidin-3-O-glucoside], in data set [5], the LC retention time was 22.3 min.
For `O=c1c(OC2OC(CO)C(O)C(O)C2O)c(-c2ccc(O)c(O)c2)oc2cc(O)cc(O)c12` (stereo not given) [Quercetin-3-O-glucoside], the LC retention time in data set [7] was 9.23 min.
Take `O=C(O)C1OC(Oc2c(-c3ccc(O)c(O)c3)oc3cc(O)cc(O)c3c2=O)C(O)C(O)C1O` (stereo not given) [Quercetin-3-O-glucuronide]: the LC retention time in [9] was 8.38 min; in [10], 7.9 min; in [3] it was 4.92 min; in data set [5], 26.2 min; in [15] it was 13.7 min.
On to `CC1OC(Oc2c(-c3ccc(O)c(O)c3)oc3cc(O)cc(O)c3c2=O)C(O)C(O)C1O` (stereo not given) [Quercitrin], for which the LC retention time was 38.3 min in data set [8], 6.01 min in [1], 6.17 min in data set [4] and 29.4 min in data set [5].
On to `COc1cc(C2Oc3c(O)cc(C4Oc5cc(O)cc(O)c5C(=O)C4O)cc3C2CO)ccc1O` (stereo not given) [Silychristin], for which, in data set [7], the LC retention time is 10.3 min.
As for `COc1cc(C2C3C=C(C4Oc5cc(O)cc(O)c5C(=O)C4O)C4C2COC4(O)C3=O)ccc1O` (stereo not given) [Silydianin], the LC retention time in data set [7] is 21.5 min.
Regarding `COc1cc(C(=O)O)cc(OC)c1O` [Syringic acid], the LC retention time was 3.33 min in [6]; 23.1 min in data set [8]; 5.04 min in [1]; 5.12 min in data set [2]; 4.88 min in data set [4]; 15.5 min in data set [5]. The LC retention time in data set [14] is 1.8 min; in data set [11], 6.44 min.
